Results taken from paper PMC12677843, “Multidisciplinary Preclinical Investigations on Ferrocenyl, Ruthenocenyl, and Benzyl Derivatives of Niridazole as New Drug Candidates against Schistosomiasis” (Chemmedchem, 2025).
“Also recorded” adds a separate entry of the source.

Assays:
[1] = tested on: S. mansoni newly transformed schistosomula (NTS); assay: In vitro evaluation on newly transformed schistosomula (NTS); type: cell-based, Schistosoma mansoni; details: for EC50: 72 h incubation, 37 °C, 5% CO2
Procedure: 2. Experimental section for biological experiments
Stock solutions of the test compounds
Stock solution of a concentration of 10 mM in pure DMSO (Sigma-Aldrich, Switzerland) were prepared of the 12 compounds, these stock solutions were used for all in vitro evaluations from activity tests in S. mansoni to the cytotoxic determinations in HUH7 hepatocyte-derived carcinoma cells, and in SH-SY5Y neuroblastoma cells.
The solutions were thoroughly vortexed and sonicated to enable a good dissolution of the compounds and homogenous stock solutions.
2.1 In vitro evaluations in S. mansoni
In vitro evaluation on newly transformed schistosomula (NTS)
To obtain newly transformed schistosomula (NTS) the lifecycle of S. mansoni (strain originates from West Africa, Liberia) is maintained at the Swiss Tropical and Public Health Institute (Swiss TPH). As previously described, cercariae are collected from infected Biomphalaria glabrata snails and then mechanically transformed into NTS. 8 After HBSS (Gibco, Waltham MA, USA) washing to get rid of the detached tails, the NTS were kept overnight (min. 12 h, max. 24 h) in culture medium at 37 °C and 5 % CO2 to complete their transformation process, before the drug sensitivity assay was started. The drug assays were performed in the same culture medium consisting of medium M199 (Gibco, Waltham MA, USA) supplemented with 5 % v/v inactivated fetal calf serum (iFCS; Bioconcept AG, Allschwil, Switzerland), 1% antibiotics mixture developed by Mäser et al., 9 and 1 % penicillin 10,000 U/mL, and streptomycin 10 mg/mL solution (Sigma-Aldrich, Buchs, Switzerland). The assay was performed in a 96-well plate, with 30−40 NTS per well in a final volume of 250 μL. NTS incubated in culture medium containing 0.5 % DMSO but no drug served as negative controls.
Microscopic evaluation was performed after 24, 48 and 72 h of incubation of the parasites at 37 °C and 5 % CO 2. Their overall viability was scored from 0 (death) to 3 (full viability) by a phenotypic screening method based on their motility, morphology, […]
and granularity. […]

SH-SY5Y cells = assay: SYTOX cell viability assay, SH-SY5Y; type: cell-based, human; details: 20 µM, 24 h, serum-free charcoal-treated medium, vs DMSO control (0.2%), mean
Procedure: The SYTOX cell viability assay was performed in SHSY5Y cells. Cells were treated with either compound (20 µM) or DMSO control (0.2%) for 24 h at 37 °C and 5% CO2 in serum‐free charcoal‐treated medium. Results were normalized to the DMSO control. Mean ± SD was calculated from three independent experiments, each performed in quadruplicate. […]
serum-free media containing either treatment at a concentration of 20 µM or DMSO (ITW Reagents Cat A3672) control (0.2 %).
Following 24 h of incubation, 12.5 μL of an XTT/phenazine methosulfate (PMS) (XTT Sigma Aldrich cat X4626, PMS Serva CAT: 3203) 0.02solution (1 mg/mL XTT and 7.5 μg/mL PMS) was added to each well. Absorbance was measured using a microplate reader (Biotek Synergy HT) at 450 nm (signal) and 650 nm (background), 2 h after the addition of the XTT/PMS solution. Individual backgrounds were subtracted and all results were normalized to DMSO control. Mean ± SD was determined from three independent experiments, each performed in quintuplicate.
SYTOX cell viability assay
The cytotoxic potential was additionally evaluated using the staining-based SYTOX viability assay. […] Data was acquired on the BioTeck Cytation5 microscope and evaluated by the manufacturer’s software (Gen5 Image Prime Version 3.12). […] Mean ± SD was determined from three independent experiments, each performed in quadruplicate. […]

adult S. mansoni = assay: In vitro drug sensitivity assay on adult S. mansoni (microscopic viability scoring); type: cell-based, Schistosoma mansoni; details: for drug effect at 50 µM on adult S. mansoni: 72 h incubation, normalized to DMSO control, active if ≥60%; for EC50: 72 h drug exposure, 37 °C, 5% CO2, read-out: EC50 on adult S. mansoni, 72 h
Procedure: Figure 3 In vitro activity at 50 µM of the 12 compounds on adult S. mansoni. Adult schistosomes were incubated in culture media for 72 h at 37 °C and 5% CO2 with either compound (50 µM) or a DMSO (0.5%) control. The viability of the worms was microscopically evaluated and scored (0—3, in 0.5 steps) every 24 h. Results are from two independent experiments, each performed in duplicate. Drug activities were normalized to the DMSO controls. Data represent mean ± SD in percentage of DMSO control. […]
In vitro evaluation on adult S. mansoni
After a week for acclimatization to the new environment with controlled conditions (temperature: 22 °C ± 2 °C, humidity: 50 % ± 10 %, 12:12 h light/dark photocycle), four-week-old female NMRI mice (Charles River, Sulzfeld, Germany) were subcutaneously infected with approximately 100 cercariae to establish the S. mansoni infection. In the S. mansoni infected mice the worms were allowed to develop for 7 weeks into the adult stage, before they were extracted from the mesenteric veins of the euthanized mice. The adult worms were placed into RPMI 1640 (Gibco, Waltham MA, USA) medium supplemented with 1 % penicillin/streptomycin mixture and 5 % iFCS at 37 °C and 5 % CO 2. The drug sensitivity assay was set up in a 24-well plate with two wells containing each two pairs of S. mansoni worms per compound and concentration.
The final volume per well was 2 mL, containing the culture medium and the corresponding amount of drug dissolved in DMSO. The maximum concentration tested was 50 µM, corresponding to 0.5 % DMSO, to which all the other wells were adapted […]
to, so that all test concentrations contained always the same amount of DMSO.
Additionally, 2 wells with negative controls containing only DMSO and the culture medium were included. After an incubation period of 72 h at 37 °C and 5 % CO 2, the worms were microscopically evaluated. The drug effect was determined 24, 48 and 72 h post-exposure based on the phenotype of the adult worms, using a viability scale ranging from three referring to viable, motile worms with no change in their tegument to zero standing for the death of the worms.
All described in vitro studies with mice involved, were conducted at the Swiss Tropical and Public Health Institute, first in Basel, later in Allschwil, and had the approval by the corresponding veterinary authorities of the Canton Basel-Stadt (permit no. 2070)

[2] = Stability of A2 in DMSO-d6 with D2O (4:1) by 1H NMR; type: physicochemical; details: Figure S36; DMSO-d6 with D2O (4:1, v/v)
Procedure: Figure S31 DEPT spectrum of C2
1H NMR spectra for stability
Preparation of the control samples for 1H NMR analysis: Compounds B1, D1, A3 and
C2 were dissolved in DMSO- d6. Compound A2 was dissolved in DMSO- d6 with D2O
(4:1, v/v). NMR spectra were recorded in deuterated solvents on Bruker Avance-400
in the room temperature for 0, 6, 24, 30 and 48 hours or 0, 3, 6 and 24 hours. […]

juvenile S. mansoni = assay: In vitro drug sensitivity assay on juvenile S. mansoni; type: cell-based, Schistosoma mansoni; details: 72 h incubation, 37 °C, 5% CO2
Procedure: Juvenile worms were gained through cultivation of NTS as previously described. 10 In short, NTS were obtained as described above, then directly after the mechanical transformation process the newly transformed schistosomula were placed in a special culturing medium. The culture medium consists of Panserin 401, w: L-Glutamine, serum free all-round medium (Pan Biotech, Aidenbach, Germany) supplemented with 20 % human serum and 500 U/mL penicillin, […] streptomycin (LuBioScience, Switzerland). 96-well transparent polystyrene flat bottom plates were used for the in vitro growth procedure, with 40 to 60 NTS per well in 100 µL culture medium. The bordering wells of the plate were filled solely with medium to counteract evaporation and to keep the humidity as steady as possible. The plates were incubated for 21 days at 5 % CO2 and at 37 °C, with regular medium changes every 3 to 4 days. After the 21 days culturing period, the schistosomulae developed into juveniles. For the drug sensitivity assay, juvenile worms were incubated over 72 h (5 % CO 2 and 37 °C) with the test compound in the same medium, as used for the culturing process. In a 96-well plate, 250 µL medium containing the test compound and six juvenile worms, ideally of both sexes were placed in each well. All compounds were tested twice independently at 50, 10, 5 and 1 µM in duplicates. The viability of the worms was evaluated microscopically after 24, 48 and 72 h of continuous drug exposure using the same phenotypic screening method as described before. […]

O=C(Nc1ncc([N+](=O)[O-])s1)[c-]1cccc1.[Fe+2].c1cc[cH-]c1 [Compound A1]
EC50 [1]: > 50 µM
drug effect at 50 µM on S. mansoni NTS ([1]; highest tested concentration 50 µM): No drug effect
reduction of SH-SY5Y cell viability (SYTOX) (SH-SY5Y cells): did not alter SH‐SY5Y cell viability; also recorded: inactive
drug effect at 50 µM on adult S. mansoni (adult S. mansoni): No drug effect
EC50 (adult S. mansoni): > 50 µM

O=C([c-]1cccc1)N1CCN(c2ncc([N+](=O)[O-])s2)C1=O.[Fe+2].c1cc[cH-]c1 [Compound A2]
EC50 [1]: 2 µM
stability under warm and moist conditions [2]: stable
mean drug effect at 10 µM on adult S. mansoni, 24 h (adult S. mansoni; 10 µM, 24 h, in percentage of DMSO control): 36.97%
mean drug effect at 10 µM on adult S. mansoni, 48 h (adult S. mansoni; 10 µM, 48 h, in percentage of DMSO control): 46.61%
mean drug effect at 10 µM on adult S. mansoni, 72 h (adult S. mansoni; 10 µM, 72 h, in percentage of DMSO control): 56.40%
drug effect at 50 µM on adult S. mansoni (adult S. mansoni): more active
EC50 (adult S. mansoni): 8.2 µM
EC50 (juvenile S. mansoni): 6.35 µM
